Measurements reported in patent publication US20150366787A1, “SESBANIA ACULEATA EXTRACTS AND METHODS OF USE” (AVON PRODUCTS, INC., priority 2013, published 2015).

Test system: dorsal forearm skin
Assay: In vivo biopsy (dorsal forearm, histology)
Set-up: species or system human
Conditions: 3 weeks semi-occlusion patch, retinol 0.05%
Method: Healthy female Caucasian subjects aged 30-65, with skin type II or III and mild to moderate photo damage, were treated on the dorsal forearm for 3 weeks (3 consecutive rounds of 5×24 hour) under semi-occlusion patches. Test articles including active ingredients, vehicle controls, and retinol were applied in a randomized allocation on 6 sites on each forearm. The application dose was 2 mg/cm^2. After 3 week treatment, a 2 mm punch biopsy was obtained from each treatment site and fixed in 10% buffered formalin. Tissue samples then embedded in paraffin, sectioned (5 μm thickness), and stained for skin markers after re-hydration. […] Retinol at a active concentration of 0.05% was used a positive control. Retinol use at a 0.05% active concentration in the semi-occlusion patch vehicle formulation yielded a visual score of approximately 0.56 out of a 4 point scale in HE staining (measuring hematoxylin and eosin staining, an indication of viable epidermal thickness and health) with 63.6% of the subjects showing an improvement; a visual score of 0.6 out of a 4 point scale in M-TC staining (Masson's trichrome staining, assessing total mature fiber-forming collagen in the dermis—mainly Collagen I, […] and Collagen V) with 51.6% of the subjects showing an improvement; a visual score of 0.52 out of a 4 point scale for pro-Col (measuring new synthesis of Collagen I by skin fibroblasts in the dermis) with 51.6% of the subjects showing an improvement; and a visual score of 0.57 out of a 4 point scale for HA (measuring level of hyaluronic acid in both dermis and epidermis) with 50% of the subjects showing an improvement.

[1] = out of a 4 point scale, extract 0.33%

## CC1=C(/C=C/C(C)=C/C=C/C(C)=C/CO)C(C)(C)CCC1 [Retinol]
Extract 0.33%
  subjects showing an improvement, HA: 50%
  subjects showing an improvement, HE staining: 63.6%
  subjects showing an improvement, M-TC staining: 51.6%
  subjects showing an improvement, pro-Col: 51.6%
Out of a 4 point scale, 2 mg/cm^2, extract 0.33% (Example 1B ethanol/water extract)
  visual score in HE staining (viable epidermal thickness and health): approximately 0.56
[1]
  visual score for HA (hyaluronic acid in dermis and epidermis): 0.57
  visual score for pro-Col (new synthesis of Collagen I): 0.52
  visual score in M-TC staining (total mature fiber-forming collagen in the dermis): 0.6
